Measured values taken from patent publication US9199943B2, “2-(poly-substituted aryl)-6-amino-5-halo-4-pyrimidinecarboxylic acids and their use as herbicides” (Dow AgroSciences, LLC., priority 2006, dated 2015).

Assays:
[1] = test system: CHEAL = lambsquarter (Chenopodium album); assay: General preemergence herbicidal activity, lambsquarter; format: in vivo; details: Chenopodium album, pre-emergence, 480 h, pre-emergent, visual score after 20-22 days; for pest or weed control at 140 g/ha: 140 g ai/ha
From the text: (§1) Seeds of the desired test plant species were planted in a soil matrix prepared by mixing a loam soil (43 percent silt, 19 percent clay, and 38 percent sand, with a pH of about 8.1 and an organic matter content of about 1.5 percent) and sand in a 70 to 30 ratio. The soil matrix was contained in plastic pots with a surface area of 113 square centimeters. When required to ensure good germination and healthy plants, a fungicide treatment and/or other chemical or physical treatment was applied. A weighed amount, determined by the highest rate to be tested, of each test compound was placed in a 25 mL glass vial and was dissolved in 6 mL of a 97:3 v/v (volume/volume) mixture of acetone and DMSO to obtain concentrated stock solutions. […] The stock solutions obtained were diluted with 18 mL of a 0.1% v/v aqueous solution of Tween® 20 surfactant to obtain spray solutions containing the highest application rate. Additional application rates were obtained by serial dilution of 12 mL of the high rate solution into a solution containing 3 mL of 97:3 v/v mixture of acetone and DMSO and 9 mL of the 0.1% v/v aqueous solution of Tween® 20 surfactant to obtain 1⁄2×, 1⁄4×, 1⁄8× and 1/16× rates of the high rate. Compound requirements are based upon a 12 mL application volume at a rate of 187 L/ha. Formulated compounds were applied to the plant material with an overhead Mandel track sprayer equipped with a […] nozzles calibrated to deliver 187 L/ha over an application area of 0.503 square meters at a spray height of 18 inches (43 cm) above the soil surface. Control plants were sprayed in the same manner with the solvent blank. The treated pots and control pots were placed in a greenhouse maintained with an approximate 15 hour photoperiod and temperatures of about 23-29° C. during the day and 22-28° C. during the night. Nutrients and water were added on a regular basis and supplemental lighting was provided with overhead metal halide 1000-Watt lamps as necessary. The water was added by top-irrigation. After 20-22 days, the condition of the test plants that germinated and grew as compared with that of the untreated plants that emerged and grew was determined visually and scored on a scale of 0 to 100 percent where 0 corresponds to no injury and 100 corresponds to complete kill or no emergence.

[2] = test system: ABUTH = velvetleaf (Abutilon theophrasti); assay: General preemergence herbicidal activity, velvetleaf; format: in vivo; details: Abutilon theophrasti, pre-emergence, 480 h, pre-emergent, visual score after 20-22 days; for pest or weed control at 140 g/ha: 140 g ai/ha
From the text: as §1

[3] = test system: HELAN = sunflower (Helianthus annuus); assay: General preemergence herbicidal activity, sunflower; format: in vivo; details: Helianthus annuus, pre-emergence, 480 h, pre-emergent, visual score after 20-22 days; for pest or weed control at 140 g/ha: 140 g ai/ha
From the text: as §1

**Q.** Which results are given for COC(=O)c1nc(-c2c(F)cc(Cl)c(OC)c2F)nc(N)c1Cl [Compound 2, 6-amino-5-chloro-2-(4-chloro-2,6-difluoro-3-methoxy-phenyl)pyrimidine-4-carboxylic acid methyl ester]?
**A.** pest or weed control at 140 g/ha [1]: 90%; pest or weed control at 140 g/ha [2]: 100%; pest or weed control at 140 g/ha [3]: 20%

**Q.** For COC(=O)c1nc(-c2ccc(Cl)c(C(F)F)c2F)nc(N)c1Cl [Compound 7, 6-Amino-5-chloro-2-(4-chloro-3-difluoromethyl-2-fluorophenyl)pyrimidine-4-carboxylic acid methyl ester], which pest or weed control at 140 g/ha [1] is on record?
**A.** 70%

**Q.** What about the pest or weed control at 140 g/ha [2] of the same molecule?
**A.** 75%

**Q.** What about the pest or weed control at 140 g/ha [3] of the same molecule?
**A.** 90%

**Q.** What about the melting point of the same molecule?
**A.** 155 to 157 °C

**Q.** For COC(=O)c1nc(-c2ccc(Cl)c(N(C)C)c2F)nc(N)c1Cl [Compound 8, 6-Amino-5-chloro-2-(4-chloro-3-dimethylamino-2-fluorophenyl)pyrimidine-4-carboxylic acid methyl ester], which melting point is on record?
**A.** 143 to 144 °C

**Q.** Which pest or weed control at 280 g/ha ([1]; 280 g ai/ha) does the source give for COC(=O)c1nc(-c2ccc(Cl)c(OCC(F)F)c2F)nc(N)c1Cl [Compound 10, 6-Amino-5-chloro-2-[4-chloro-3-(2,2-difluoroethoxy)-2-fluorophenyl]-pyrimidine-4-carboxylic acid methyl ester] here?
**A.** 60%

**Q.** And the pest or weed control at 280 g/ha ([2]; 280 g ai/ha)?
**A.** 80%

**Q.** And the pest or weed control at 280 g/ha ([3]; 280 g ai/ha)?
**A.** 0%

**Q.** And the melting point?
**A.** 139 to 141 °C

**Q.** Which pest or weed control at 140 g/ha [1] does the source give for COC(=O)c1nc(-c2ccc(Cl)c(OC)c2Cl)nc(N)c1Cl [Compound 6, 6-Amino-5-chloro-2-(2,4-dichloro-3-methoxyphenyl)pyrimidine-4-carboxylic acid methyl ester] here?
**A.** 100%

**Q.** And the pest or weed control at 140 g/ha [2]?
**A.** 60%

**Q.** And the pest or weed control at 140 g/ha [3]?
**A.** 90%
